Data: US11426389B2, “Compositions and methods for promoting hematopoietic stem cell regeneration” (priority 2017, dated 2022)

Columns and labels:
ShCamkk2 M1 cells = assay type: cell-based
Experimental: FIG. 6A-6F. CaMKK2 couples radiation signaling with the AMPK anti-proliferative pathway. HSPC (KL+KSL) were isolated from WT and Camkk2 null (KO) mice and irradiated in vitro with 400 cGy or left non-irradiated. Cells were then cultured for 1-h in regular medium. Protein expression was normalized by actin and expressed as fold change over basal (non-irradiated WT HSPC), and is reported on the top of each lane. (A) Immunoblots of CaMKK2, phospho-CaMK1 (pCaMK1) and actin. (B) Immunoblots of Tp53, phosphorylated AMPK and S6rp (pAMPK and pS6rp, respectively). (C-E) M1 myeloid progenitor cells were transduced with lentiviral vectors expressing a short hairpin sequence for silencing Camkk2 or a control sequence (ShCamkk2 and Ctrl, respectively). Ctrl and ShCamkk2 M1 cells were then irradiated or left non-irradiated. One-hour after irradiation, M1 cell protein expression was assessed by immunoblotting. (C) Expression of CaMKK2 and actin. […] Cell number was determined using a colorimetric assay, and the results are expressed as fold change of non-irradiated cells cultured in the absence of AICAR. […]
To determine the functional effects of Camkk2 deficiency in M1 cells, control and ShCamkk2 M1 cells were exposed to 300 cGy with or without a cell permeable AMPK agonist and the number of live M1 cells were determined 24 h after irradiation.

[1] = test system: 900 cGy TBI wild-type mice; experiment: Survival of lethally irradiated (900 cGy TBI, LD100/15) wild-type mice treated with STO-609; assay type: in vivo; conditions: 10 μM/kg on days 1, 2 and 3 post-TBI, intravenous, vs vehicle, n=10 per group
Experimental: (§1) FIGS. 7A-7D. Pharmacologic inhibition of CaMKK2 enhances hematopoietic regeneration in vivo. Treatment with STO-609, a CaMKK2 inhibitor, mitigates the acute hematopoietic radiation syndrome. (A) Scheme of irradiation and STO-609 treatment in wild type mice. (B) Survival of 900 cGy TBI wild-type mice treated with vehicle or STO-609 (n=10 per group). Wild-type mice were irradiated with 500 cGy TBI and were then treated with STO-609 or vehicle after 24 h. Nine days after TBI, the mice were killed and bones were removed. The BM cells were counted and stained to identify HSPC (BMC). (C) Representative staining and gating strategy. (D) Absolute number of BMC and HSPC (upper and lower graph, respectively). The results are expressed as the fold changes over the absolute number of cells recovered form vehicle-treated wild type mice, and are normalized for one femur. Two independent experiments have been combined (total number of mice-9 per group). Bars graph reports mean±S.E.M. *P-value<0.05, **P-value<0.01/
(§2) CaMKK2-EGFP transgenic reporter mice were used. Radiation was delivered by a Shepherd Cs^137γ-irradiator at a dose rate of approximately 600 cGy per min. […]
(§3) It was hypothesized that pharmacologic inhibition of CaMKK2 increases survival and HSPC recovery following TBI. […] Next, the effects of STO-609 treatment on HSPC of mice receiving 500 cGy TBI were evaluated. […]

HSPC = experiment: Bone marrow cell and HSPC recovery in 500 cGy TBI wild-type mice treated with STO-609; assay type: in vivo; conditions: 9 days after TBI, vs vehicle-treated mice
Experimental: as §1, §2, §3

NC(=O)c1ncn([C@@H]2O[C@H](CO)[C@@H](O)[C@H]2O)c1N [AICAR, 5-aminoimidazole-4-carboxamide 1-β-d-ribofuranoside]
cell death (ShCamkk2 M1 cells; M1 cells, following radiation or AICAR treatment (data not shown)): no increase in cell death | number of live M1 cells (proliferation) after irradiation (ShCamkk2 M1 cells; ShCamkk2 M1 cells, 300 cGy, 24 h, AICAR 100 μM): reverted the refractory phenotype of ShCamkk2 M1 cells

O=C(O)c1ccc2c3c1cccc3c(=O)n1c3ccccc3nc21 [STO-609, 7H-benzimidazo(2,1-a)benz(de)isoquinoline-7-one-3-carboxylic acid]
survival following TBI [1]: significantly prolonged survival | HSPC in the BM (HSPC): More | total BM cells in the BM (HSPC): More total BM cells
